Source: US20260263593A1, “ALLERGY ANTIGEN AND EPITOPE THEREOF” (HOYU CO., LTD., priority 2018, published 2026)

Tested on: IgE antibody present in the serum of a shrimp-allergic patient
Experiment: Epitope mapping (1): array of overlapping 15-amino-acid peptides, chemiluminescence
Format: binding, human
Conditions: 15-amino-acid peptide array; serum of 37 patients; difference from N2nd value of 5 non-shrimp-allergic subjects at least 35,000
Method: Epitope mapping was carried out using a library of overlapping peptides (length: 15 amino acids) corresponding to the amino acid sequences identified as allergy components of shrimp and the amino acid sequence of arginine kinase. Specifically, the library of overlapping peptides was prepared on the basis of the amino acid sequences of SEQ ID NOs: 117, 141, 146, 2, 45, 87, 276, 161, 230, 179, 362, 381, 399, 421, 455, 481, 486, 520, 541, 300 and 306, and arginine kinase.
The peptides to be synthesized were shifted by 10 amino acids.
For preparation of peptide arrays, the Intavis CelluSpots™ technique was used. Specifically, the peptide arrays were prepared by the following procedure: (1) synthesizing peptides of interest on amino-modified cellulose disks using an automated chemical synthesis apparatus (Intavis MultiPep RS), (2) dissolving the amino-modified cellulose disks to obtain a cellulose-bound peptide solution, and (3) spotting the cellulose-bound peptides onto coated glass slides. The details of each procedure are as described below.
Peptide synthesis was carried out in incremental steps through 9-fluorenylmethoxycarbonyl (Fmoc) chemical reaction on amino-modified cellulose disks in 384-well synthesis plates. Specifically, amino acids in which a Fmoc group is bonded to an amino group were activated in a solution of N,N′-diisopropylcarbodiimide (DIC) and 1-hydroxybenzotriazole (HOBt) in dimethylformamide (DMF) and added dropwise to the cellulose disks so that the Fmoc group-bound amino acids were bound to the amino groups on the cellulose disks (coupling). Unreacted amino groups were capped with acetic anhydride and washed with DMF. Furthermore, the Fmoc groups were eliminated from the amino groups of the amino acids bound to the amino groups on the cellulose disks by treatment with piperidine and washing with DMF. The amino acids bound to the amino groups on the cellulose disks were repetitively subjected to the coupling, the capping, and the Fmoc group elimination described above to elongate the amino terminus for peptide synthesis.
The peptides-bound cellulose disks of interest obtained above in the subsection titled “(1) Synthesis of peptide” were transferred to 96-well plates and treated with a side chain deprotection mixed solution of trifluoroacetic acid (TFA), dichloromethane, triisopropylsilane (TIPS), and water for deprotection of amino acid side chains. Then, the deprotected cellulose-bound peptides were dissolved in a mixed solution of TFA, trifluoromethanesulfonic acid (TFMSA), TIPS, and water and precipitated in tetrabutyl methyl ether (TBME), and the precipitate was resuspended in dimethyl sulfoxide (DMSO) and mixed with a mixed solution of NaCl, sodium citrate, and water to obtain a peptide solution for slide spotting.
The peptide solution for slide spotting obtained above in the subsection titled “(2) Dissolution of amino-modified cellulose disk” was spotted onto Intavis CelluSpots™ slides using Intavis Slide Spotting Robot, and the slides were dried to prepare peptide arrays.
The presence or absence of binding, to each peptide fragment, of an IgE antibody present in the serum of a shrimp-allergic patient was measured through antigen-antibody reaction using the peptide arrays. […]

Substance	Peptide bound to an IgE antibody in serum in a patient-specific manner
E22: common 15-residue IgE-binding epitope sequence of polypeptide (E22), cyclophilin A-derived (VMELRADVVPKTAEN; VAR_SEQ 1..15 epitope) [Epitope E22]	bound to an IgE antibody in serum in a patient-specific manner
E30: common 15-residue IgE-binding epitope sequence of polypeptide (E30), myosin heavy chain type 1-derived (MLEAKDDKKAATACF; VAR_SEQ 1..15 epitope) [Epitope E30]	bound to an IgE antibody in serum in a patient-specific manner
E4: common 15-residue IgE-binding epitope sequence of polypeptide (E4), myosin heavy chain type 1-derived (HGELEESRTLLEQSD; VAR_SEQ 1..15 epitope) [Epitope E4]	bound to an IgE antibody in serum in a patient-specific manner
E25: common 15-residue IgE-binding epitope sequence of polypeptide (E25), arginine kinase-derived (VNVDPEGKFVISTRV; VAR_SEQ 1..15 epitope) [Epitope E25]	bound to an IgE antibody in serum in a patient-specific manner
E29: common 15-residue IgE-binding epitope sequence of polypeptide (E29), myosin heavy chain type 1-derived (QRYNILAAKEMLEAK; VAR_SEQ 1..15 epitope) [Epitope E29]	bound to an IgE antibody in serum in a patient-specific manner
E14: common 15-residue IgE-binding epitope sequence of polypeptide (E14), hemocyanin subunit L1-derived (ERGIDVLGDVIESSL; VAR_SEQ 1..15 epitope) [Epitope E14]	bound to an IgE antibody in serum in a patient-specific manner
E7: common 15-residue IgE-binding epitope sequence of polypeptide (E7), myosin heavy chain type 2-derived (AKSAMDSLARDKALA; VAR_SEQ 1..15 epitope) [Epitope E7]	bound to an IgE antibody in serum in a patient-specific manner
E11: common 15-residue IgE-binding epitope sequence of polypeptide (E11), myosin heavy chain type 2-derived (RSLHEIEKNAKRFEI; VAR_SEQ 1..15 epitope) [Epitope E11]	bound to an IgE antibody in serum in a patient-specific manner
E45: common 15-residue IgE-binding epitope sequence of polypeptide (E45), pyruvate kinase 3-derived (WHKQLFTELSQQVHL; VAR_SEQ 1..15 epitope) [Epitope E45]	bound to an IgE antibody in serum in a patient-specific manner
E42: common 15-residue IgE-binding epitope sequence of polypeptide (E42), myosin heavy chain type 1-derived (QLEDTKKMVDDESRE; VAR_SEQ 1..15 epitope) [Epitope E42]	bound to an IgE antibody in serum in a patient-specific manner
E17: common 15-residue IgE-binding epitope sequence of polypeptide (E17), pyruvate kinase 3-derived (PGNRIFVDDGLISLI; VAR_SEQ 1..15 epitope) [Epitope E17]	bound to an IgE antibody in serum in a patient-specific manner
E34: common 15-residue IgE-binding epitope sequence of polypeptide (E34), myosin heavy chain type 1-derived (VQVNPPKYEKCEDVS; VAR_SEQ 1..15 epitope) [Epitope E34]	bound to an IgE antibody in serum in a patient-specific manner
E33: common 15-residue IgE-binding epitope sequence of polypeptide (E33), myosin heavy chain type 1-derived (TKPYDPKKSCWVPDD; VAR_SEQ 1..15 epitope) [Epitope E33]	bound to an IgE antibody in serum in a patient-specific manner
E13: common 15-residue IgE-binding epitope sequence of polypeptide (E13), glycogen phosphorylase-derived (EWVVHLDQLTKLKPL; VAR_SEQ 1..15 epitope) [Epitope E13]	bound to an IgE antibody in serum in a patient-specific manner
E23: common 15-residue IgE-binding epitope sequence of polypeptide (E23), cyclophilin A-derived (SCFHRVIPNFMCQGG; VAR_SEQ 1..15 epitope) [Epitope E23]	bound to an IgE antibody in serum in a patient-specific manner
E27: common 15-residue IgE-binding epitope sequence of polypeptide (E27), myosin heavy chain type 1-derived (KLVTVKLPSGETKDF; VAR_SEQ 1..15 epitope) [Epitope E27]	bound to an IgE antibody in serum in a patient-specific manner
E21: common 15-residue IgE-binding epitope sequence of polypeptide (E21), troponin I-derived (MADEEAKKKQEEIDR; VAR_SEQ 1..15 epitope) [Epitope E21]	bound to an IgE antibody in serum in a patient-specific manner
E20: common 15-residue IgE-binding epitope sequence of polypeptide (E20), mitochondrial ATP synthase subunit alpha precursor-derived (PESDAKLKQIVTDFL; VAR_SEQ 1..15 epitope) [Epitope E20]	bound to an IgE antibody in serum in a patient-specific manner
E6: common 15-residue IgE-binding epitope sequence of polypeptide (E6), myosin heavy chain type 2-derived (KDHQIRNINDEISHQ; VAR_SEQ 1..15 epitope) [Epitope E6]	bound to an IgE antibody in serum in a patient-specific manner
E24: common 15-residue IgE-binding epitope sequence of polypeptide (E24), arginine kinase-derived (LFDPIIEDYHVGFKQ; VAR_SEQ 1..15 epitope) [Epitope E24]	bound to an IgE antibody in serum in a patient-specific manner
E12: common 15-residue IgE-binding epitope sequence of polypeptide (E12), glycogen phosphorylase-derived (LPEALERWPTSMLEH; VAR_SEQ 1..15 epitope) [Epitope E12]	bound to an IgE antibody in serum in a patient-specific manner
E50: common 15-residue IgE-binding epitope sequence of polypeptide (E50), cyclophilin A-derived (AADNQPVGRIVMELR; VAR_SEQ 1..15 epitope) [Epitope E50]	bound to an IgE antibody in serum in a patient-specific manner
E38: common 15-residue IgE-binding epitope sequence of polypeptide (E38), myosin heavy chain type 1-derived (LDKELYRCGKTKVFF; VAR_SEQ 1..15 epitope) [Epitope E38]	bound to an IgE antibody in serum in a patient-specific manner
E46: common 15-residue IgE-binding epitope sequence of polypeptide (E46), phosphopyruvate hydratase-derived (TGVHEALEMRDGDKS; VAR_SEQ 1..15 epitope) [Epitope E46]	bound to an IgE antibody in serum in a patient-specific manner
